Data published in US9988430B2, “Stable GLP-1 based GLP-1/glucagon receptor co-agonists” (Novo Nordisk A/S, priority 2014, dated 2018).
*1 amine or outer side, *2 acyl side, *3 side chain or, on linkers, in order; H or OH if unused. Where a SMILES comes first, the peptide text is derived from it. Bridges are numbered along the chain shown (N, C = ends). Roman numbers before positions name the chains, in order. Side-chain parts run from the residue outwards. [ ]: non-standard residue; d: D form. The star is where a group is joined. C18 diacid = O=C(O)CCCCCCCCCCCCCCCCC(=O)*; γGlu = O=C(O)[C@H](CCC(=O)[*:2])N[*:1]; Desaminohistidyl = O=C(CCc1c[nH]cn1)*; Ac4c = NC1(C(=O)O)CCC1; AEEA = NCCOCCOCC(=O)O; Aib = CC(C)(N)C(=O)O

Molecular target: T1, human GLP-1 receptor (Homo sapiens, UniProt P43220)
T1 construct: expressed in transfected cells; host or cells: membranes of BHK cells, parent line BHKTS13, clone FCW467-12A
Test: Assay (II)(a): GLP-1 receptor binding, [125I]GLP-1 displacement, SPA on BHK membranes
Settings: displacement of [125I]GLP-1, membranes with human GLP-1 receptor; read-out: IC50 GLP-1R
Description: Assay (II): GLP-1 and Glucagon Receptor Binding The purpose of this assay is to test the in vitro receptor binding activity of the GLP-1 derivatives of the invention. (a) GLP-1 Receptor Binding The GLP-1 receptor (GLP-1R) binding is a measure of the affinity of a derivative for the human GLP-1 receptor. The GLP-1 receptor binding of each derivatives were determined with competitive binding, displacing [^125I]GLP-1 bound to GLP-1 receptors expressed in cell membranes associated with wheat germ agglutinin (WGA) scintillation proximity assay (SPA) beads. Each derivative was added in a series of concentrations to isolated membranes comprising the human GLP-1 receptor and displacement of the labelled radioligand was monitored. The receptor binding was reported as the concentration at which half of the labelled ligand is displaced from the receptor, the IC^50 value. The following chemicals were used in the assay: MEM w/o phenol red (Gibco 11880-028), Pen/strep (Invitrogen 15140-122), G418 (Invitrogen 10131-027), 1 M Hepes (Gibco 15630), EDTA (Invitrogen 15575-038), PBS (Invitrogen 14190-094), fetal calf serum (Invitrogen 16140-071), EGTA, MgCl2 (Merck 1.05832.1000), Tween 20 (Amresco 0850C335), SPA particles (wheat germ agglutinin (WGA) SPA beads, Perkin Elmer RPNQ0001), [125I]-GLP-1]-(7-36)NH2 (produced in-house), OptiPlate™-96 (Perkin Elmer). Buffer 1 consisted of 20 mM Na-HEPES plus 10 mM EDTA and pH was adjusted to 7.4. Buffer 2 consisted of 20 mM Na-HEPES plus 0.1 mM EDTA and pH was adjusted to 7.4. Assay buffer consisted of 50 mM HEPES supplemented with 5 mM EGTA, 5 mM MgCl2, 0.005% Tween 20 and pH was adjusted to 7.4. A 0.02% albumin stock consisted of HSA dissolved at 0.02% (w/v) in assay buffer. The cells used in this assay (clone FCW467-12A) were BHK cells with BHKTS13 as a parent cell line. The cells express the human GLP-1 receptor. The cells were grown at 5% CO2 in DMEM, 10% fetal calf serum, 1% Pen/Strep (Penicillin/Streptomycin) and 1.0 mg/ml of the selection marker G418. To make a membrane preparation the cells were grown to approximately 80% confluence. The cells were washed twice in phosphate-buffered saline and harvested. The cells were pelleted using a brief centrifugation and the cell pellet was kept on ice. The cell pellet was homogenised with ULTRA-THURRAX dispersing instrument for 20-30 seconds in a suitable amount of buffer 1 (e.g., 10 ml). The homogenate was centrifuged for 15 minutes. The pellet was re-suspended (homogenised) in 10 ml buffer 2 and centrifuged. This step was repeated once more. The resulting pellet was re-suspended in buffer 2 and the protein concentration was determined. The membranes were aliquoted and stored at minus 80° C. • 1. For the receptor binding assay 50 μl of the assay buffer was added to each well of an assay plate. • 2. Test compounds were serially diluted to give the following concentrations: 8×10EE-7 M, 8×10EE-8 M, 8×10EE-9 M, 8×10EE-10 M, 8×10EE-11 M, 8×10EE-12 M and 8×10EE-13 M. Twenty-five μl were added to appropriate wells in the assay plate. • 3. Cell membrane aliquots were thawed and diluted to their working concentration. Fifty μl were added to each well in the assay plate. • 4. WGA SPA beads were suspended in assay buffer at 20 mg/ml. The suspension was diluted to 10 mg/ml in assay buffer just prior to addition to the assay plate. Fifty μl were added to each well in the assay plate. • 5. The incubation was started by adding 25 μl of 480 pM solution of [125I]-GLP-1]-(7-36)NH2 to each well of the assay plate. A 25 μl aliquot was reserved for measuring total counts/well. • 6. The assay plate was incubated for 2 h at 30° C. • 7. The assay plate was centrifuged for 10 min. • 8. The assay plate was read in a Perkin Elmer TopCount NXT instrument. Calculations The data from the TopCount instrument were transferred to GraphPad Prism software. The software averaged the values for the replicates and performed a non-linear regression. IC50 values were calculated by the software and reported in nM. […]

T1 sequence (P43220 24-463): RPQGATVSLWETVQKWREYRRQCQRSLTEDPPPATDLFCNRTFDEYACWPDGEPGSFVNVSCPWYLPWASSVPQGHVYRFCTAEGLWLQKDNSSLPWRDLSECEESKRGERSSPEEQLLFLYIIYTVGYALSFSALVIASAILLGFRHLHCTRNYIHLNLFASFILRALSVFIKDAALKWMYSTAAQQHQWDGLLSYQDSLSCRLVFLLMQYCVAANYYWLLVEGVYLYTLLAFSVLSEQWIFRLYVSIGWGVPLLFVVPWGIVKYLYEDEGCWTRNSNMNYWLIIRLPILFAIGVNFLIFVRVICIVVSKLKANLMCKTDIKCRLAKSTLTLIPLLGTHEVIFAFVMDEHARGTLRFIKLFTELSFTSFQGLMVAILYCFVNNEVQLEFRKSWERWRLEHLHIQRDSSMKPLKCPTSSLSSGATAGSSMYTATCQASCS

For `CC[C@H](C)[C@H](NC(=O)[C@H](Cc1ccccc1)NC(=O)[C@H](CCC(=O)O)NC(=O)[C@H](CCCNC(=N)N)NC(=O)[C@H](C)NC(=O)[C@H](C)NC(=O)[C@H](CCC(N)=O)NC(=O)[C@H](CCC(=O)O)NC(=O)[C@H](CCC(=O)O)NC(=O)[C@H](CC(C)C)NC(=O)[C@H](Cc1ccc(O)cc1)NC(=O)[C@H](CCCCN)NC(=O)[C@H](CO)NC(=O)[C@H](Cc1ccc(O)cc1)NC(=O)[C@H](CC(=O)O)NC(=O)[C@H](CO)NC(=O)[C@@H](NC(=O)[C@H](Cc1ccccc1)NC(=O)[C@@H](NC(=O)CNC(=O)[C@H](Cc1c[nH]cn1)NC(=O)C(C)(C)NC(=O)CCc1c[nH]cn1)[C@@H](C)O)[C@@H](C)O)C(=O)N[C@@H](C)C(=O)N[C@@H](Cc1c[nH]c2ccccc12)C(=O)N[C@@H](CC(C)C)C(=O)N[C@@H](CC(C)C)C(=O)N[C@@H](CCCCN)C(=O)NCC(=O)N[C@@H](CCCCNC(=O)CNC(=O)[C@H](CO)NC(=O)[C@H](CCC(=O)O)NC(=O)CNC(=O)[C@H](CO)NC(=O)CC[C@H](NC(=O)CC[C@H](NC(=O)CCCCCCCCCCCCCCCCC(=O)O)C(=O)O)C(=O)O)C(=O)NCC(=O)O` [Example 14, N^ε36-[2-[[(2S)-2-[[(2S)-4-carboxy-2-[[2-[[(2S)-2-[[(4S)-4-carboxy-4-[[(4S)-4-carboxy-4-(17-carboxyheptadecanoylamino)butanoyl]amino]butanoyl]amino]-3-hydroxypropanoyl]amino]acetyl]amino]butanoyl]amino]-3-hydroxypropanoyl]amino]acetyl]-[Imp7,Aib8,His9,Tyr16,Lys18,Glu22,Arg26,Leu33,Lys36]-GLP-1-(7-37)-peptide] (I: Desaminohistidyl-[Aib]HGTFTSDYSKYLEEQAAREFIAWLLKGKG-OH / II: {C18 diacid-γGlu-γGlu}-SGESG; amide I:29-II:C), the IC50 was 3.2 nM.

With `CC[C@H](C)[C@H](NC(=O)[C@H](Cc1ccccc1)NC(=O)[C@H](CCC(=O)O)NC(=O)[C@H](CCCNC(=N)N)NC(=O)[C@H](C)NC(=O)[C@H](C)NC(=O)[C@H](CCC(N)=O)NC(=O)[C@H](CCC(=O)O)NC(=O)[C@H](CCC(=O)O)NC(=O)[C@H](CC(C)C)NC(=O)[C@H](Cc1ccc(O)cc1)NC(=O)[C@H](CCCCN)NC(=O)[C@H](CO)NC(=O)[C@@H](NC(=O)[C@H](CC(=O)O)NC(=O)[C@H](CO)NC(=O)[C@@H](NC(=O)[C@H](Cc1ccccc1)NC(=O)[C@@H](NC(=O)CNC(=O)[C@H](Cc1c[nH]cn1)NC(=O)C(C)(C)NC(=O)CCc1c[nH]cn1)[C@@H](C)O)[C@@H](C)O)C(C)C)C(=O)N[C@@H](C)C(=O)N[C@@H](Cc1c[nH]c2ccccc12)C(=O)N[C@@H](CC(C)C)C(=O)N[C@H](C(=O)N[C@@H](CCCCNC(=O)COCCOCCNC(=O)COCCOCCNC(=O)CC[C@H](NC(=O)CC[C@H](NC(=O)CCCCCCCCCCCCCCCCC(=O)O)C(=O)O)C(=O)O)C(=O)N[C@H](C(N)=O)[C@@H](C)O)[C@@H](C)CC` [Example 42, N^ε34-[2-[2-[2-[[2-[2-[2-[[(4S)-4-carboxy-4-[[(4S)-4-carboxy-4-(17-carboxyheptadecanoylamino)butanoyl]amino]butanoyl]amino]ethoxy]ethoxy]acetyl]amino]ethoxy]ethoxy]acetyl]-[Imp7,Aib8, His9,Lys18,Glu22,Arg26,Ile33,Thr35]-GLP-1-(7-35)-peptide amide] (Desaminohistidyl-[Aib]HGTFTSDVSKYLEEQAAREFIAWLIK([AEEA-AEEA-γGlu-γGlu-C18 diacid])T-NH2) the IC50 was 0.2 nM.

In the case of `CC[C@H](C)[C@H](NC(=O)[C@H](Cc1ccccc1)NC(=O)[C@H](CCC(=O)O)NC(=O)[C@H](CCCNC(=N)N)NC(=O)[C@H](C)NC(=O)[C@H](C)NC(=O)[C@H](CCCNC(=N)N)NC(=O)CNC(=O)[C@H](CCC(=O)O)NC(=O)[C@H](CC(C)C)NC(=O)[C@H](Cc1ccc(O)cc1)NC(=O)[C@H](CCCCN)NC(=O)[C@H](CO)NC(=O)[C@@H](NC(=O)[C@H](CC(=O)O)NC(=O)[C@H](CO)NC(=O)[C@@H](NC(=O)[C@H](Cc1ccccc1)NC(=O)[C@@H](NC(=O)CNC(=O)[C@H](Cc1c[nH]cn1)NC(=O)[C@H](C)NC(=O)CCc1c[nH]cn1)[C@@H](C)O)[C@@H](C)O)C(C)C)C(=O)N[C@@H](C)C(=O)N[C@@H](Cc1c[nH]c2ccccc12)C(=O)N[C@@H](CC(C)C)C(=O)N[C@@H](CC(C)C)C(=O)N[C@@H](CCCCNC(=O)COCCOCCNC(=O)COCCOCCNC(=O)CC[C@H](NC(=O)CC[C@H](NC(=O)CC[C@H](NC(=O)CCCCCCCCCCCCCCCCC(=O)O)C(=O)O)C(=O)O)C(=O)O)C(=O)NCC(=O)NCC(=O)NCC(=O)O` [Example 11, N^ε34-[2-[2-[2-[[2-[2-[2-[[(4S)-4-carboxy-4-[[(4S)-4-carboxy-4-[[(4S)-4-carboxy-4-(17-carboxyheptadecanoylamino)butanoyl]amino]butanoyl]amino]butanoyl]amino]ethoxy]ethoxy]acetyl]amino]ethoxy]ethoxy]acetyl]-[Imp7,His9,Lys18,Arg23,Arg26,Leu33,Gly36]-GLP-1-(7-37)-peptide] (Desaminohistidyl-AHGTFTSDVSKYLEGRAAREFIAWLLK([AEEA-AEEA-γGlu-γGlu-γGlu-C18 diacid])GGG-OH), the IC50 is reported as 0.9 nM.

With `CC[C@H](C)[C@H](NC(=O)[C@H](Cc1ccccc1)NC(=O)[C@H](CCC(=O)O)NC(=O)[C@H](CCCNC(=N)N)NC(=O)[C@H](C)NC(=O)[C@H](C)NC(=O)[C@H](CCC(N)=O)NC(=O)[C@H](CCCCNC(=O)CC[C@H](NC(=O)CC[C@H](NC(=O)COCCOCCNC(=O)COCCOCCNC(=O)CC[C@H](NC(=O)CCCCCCCCCCCCCCCCC(=O)O)C(=O)O)C(=O)O)C(=O)O)NC(=O)[C@H](CCC(=O)O)NC(=O)[C@H](CC(C)C)NC(=O)[C@H](Cc1ccc(O)cc1)NC(=O)[C@H](CCCCN)NC(=O)[C@H](CO)NC(=O)[C@@H](NC(=O)[C@H](CC(=O)O)NC(=O)[C@H](CO)NC(=O)[C@@H](NC(=O)[C@H](Cc1ccccc1)NC(=O)[C@@H](NC(=O)CNC(=O)[C@H](Cc1c[nH]cn1)NC(=O)C1(NC(=O)CCc2c[nH]cn2)CCC1)[C@@H](C)O)[C@@H](C)O)C(C)C)C(=O)N[C@@H](C)C(=O)N[C@@H](Cc1c[nH]c2ccccc12)C(=O)N[C@@H](CC(C)C)C(=O)N[C@@H](CC(C)C)C(=O)N[C@@H](CCCCN)C(=O)N[C@H](C(N)=O)[C@@H](C)O` [Example 33, N^ε22-[(4S)-4-carboxy-4-[[(4S)-4-carboxy-4-[[2-[2-[2-[[2-[2-[2-[[(4S)-4-carboxy-4-(17-carboxyheptadecanoylamino)butanoyl]amino]ethoxy]ethoxy]acetyl]amino]ethoxy]ethoxy]acetyl]amino]butanoyl]amino]butanoyl]-[Imp7,Acb8,His9,Lys18,Lys22,Arg26,Leu33,Thr35]-GLP-1-(7-35)-peptide amide] (Desaminohistidyl-[Ac4c]HGTFTSDVSKYLEK([γGlu-γGlu-AEEA-AEEA-γGlu-C18 diacid])QAAREFIAWLLKT-NH2) the IC50 was 0.2 nM.
